Laboratory results: patent publication EP2929785A1, “A PLA inhibitor for inhibition of fat absorption” (PAT GmbH, priority 2014, dated 2015)
Peptide text beside a SMILES is read from it. * marks the point of attachment. Cbz = O=C(OCc1ccccc1)*

Columns and labels:
[1] = target: T1, organic anion-transporting polypeptide 1 in HepG2 cells (Homo sapiens, UniProt P46721); conditions: uptake by HepG2 cells; Chamulitrat et al. 2009; read-out: half-maximal inhibitory concentration (IC50) for competition with UDCA-LPE uptake; cited from earlier work
T1 construct: host or cells: HepG2 (endogenous)
T1 sequence (P46721 1-670): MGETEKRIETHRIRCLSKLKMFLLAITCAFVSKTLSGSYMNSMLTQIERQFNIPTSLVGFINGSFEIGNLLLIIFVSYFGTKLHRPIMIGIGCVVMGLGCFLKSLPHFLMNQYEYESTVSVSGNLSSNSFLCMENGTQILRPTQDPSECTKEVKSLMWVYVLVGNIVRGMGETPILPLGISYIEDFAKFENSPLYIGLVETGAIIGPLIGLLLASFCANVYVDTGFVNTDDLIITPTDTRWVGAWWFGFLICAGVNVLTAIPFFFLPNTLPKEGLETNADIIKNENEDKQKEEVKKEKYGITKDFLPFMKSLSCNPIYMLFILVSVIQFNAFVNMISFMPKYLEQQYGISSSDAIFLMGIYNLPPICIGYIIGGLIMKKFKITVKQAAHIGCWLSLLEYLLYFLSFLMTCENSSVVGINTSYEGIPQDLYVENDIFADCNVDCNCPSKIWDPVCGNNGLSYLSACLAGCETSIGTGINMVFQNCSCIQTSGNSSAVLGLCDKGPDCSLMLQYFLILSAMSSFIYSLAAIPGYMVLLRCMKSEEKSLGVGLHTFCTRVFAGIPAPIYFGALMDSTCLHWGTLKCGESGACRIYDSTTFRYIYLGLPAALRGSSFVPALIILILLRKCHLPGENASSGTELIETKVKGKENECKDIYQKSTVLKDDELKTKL

HepG2 cells [2] = test: Fatty acid ([3H]oleate:albumin) influx in HepG2 cells; type: cell-based, human
[3] = system: DRM-PM proteins iPLA2ß, CD36, FABPPM, caveolin1; test: DRM-PM protein levels in HepG2 cells by semi-quantitative densitometry; type: cell-based, human; conditions: bafilomycin 50 nM, 16 h
[4] = system: transcripts of all complex subunits; test: In vitro transcription in native HepG2 nuclear extracts exposed to LPC-conditioned delipidated cytosol; type: biochemical, human; conditions: delipidated cytosol incubated with LPC 1 h
HepG2 cells [5] = test: [3H]glucose influx in HepG2 cells; type: cell-based, human; conditions: at 10 mM glucose; MßCD
cytosolic LPC = test: Cytosolic LPC concentration in HepG2 cells; type: cell-based, human; conditions: Homo sapiens, HepG2, 0.5 h; 30 min treatment (Fig. 7); read-out: suppression of cytosolic LPC (IC50)
Method: LPC concentration in cytosolic supernatants was measured as previously described (Kishimoto T et al. Clin. Biochem. 2002; 35: 411-416).

In the case of C[C@H](CCC(=O)O)[C@H]1CC[C@H]2[C@@H]3[C@@H](O)C[C@@H]4C[C@H](O)CC[C@]4(C)[C@H]3CC[C@]12C [UDCA, ursodeoxycholic acid], the IC50 [1] is listed as 20 µM.
With CO/C1=C\C(C)=C\[C@@H](C)[C@@H](O)[C@@H](C)C/C(C)=C/C=C/[C@H](OC)[C@@H]([C@@H](C)[C@@H](O)[C@H](C)[C@@]2(O)C[C@@H](O)[C@H](C)[C@@H](C(C)C)O2)OC1=O [bafilomycin] the fatty acid influx (HepG2 cells [2]; bafilomycin 50 nM, 16 h, untreated 26.95 ± 2.4) was 33.33 ± 5.1 nmol/mg protein/min, the “increase in DRM-PM CD36” value [3] was 40.85 ± 10.56% and the “increase in DRM-PM FABPPM” value [3] was 25.99 ± 3.35%. The “increase in DRM-PM caveolin1” value [3] was 60.76 ± 7.03% and the “increase in DRM-PM iPLA2ß” value [3] was 51.56 ± 9.85%.
In the case of lysophosphatidylcholine [LPC], the “LPC concentration at which the transcripts of all complex subunits were downregulated” value [4] is reported as 5 µmol/mg protein.
In the case of CC(C)C[C@@H](C=O)NC(=O)[C@H](CC(C)C)NC(=O)[C@H](CC(C)C)NC(=O)OCc1ccccc1 [MG132, reference compound] (Cbz-Leu-Leu-Leu-aldehyde), the “effect on fatty acid uptake” value (HepG2 cells [2]) is reported as “no effect on uptake”.
For O=C([O-])[C@H](O)[C@@H](O)[C@H](O)[C@H](O)CO.[Na+] [Na-gluconate, reference compound], the “passive translocation component of fatty acid influx” value (HepG2 cells [2]) was “inhibited to negligible levels”.
For “methyl-beta-cyclodextrin [MßCD, reference compound]”, the “additional reduction of fatty acid influx” value (HepG2 cells [2]) was 60% and the “influx of [3H]glucose” value (HepG2 cells [5]) was 135.70 ± 14.7 nmol/mg protein/min.
Compound O=C1O/C(=C/Br)CCC1c1cccc2ccccc12 (stereo not shown) [BEL, bromoenol lactone, reference compound] has an IC50 (HepG2 cells [2]; Homo sapiens, HepG2, 1-h treatment with increasing concentrations (Fig. 2A), read-out: inhibition of fatty acid influx (IC50)) of 52 µM and an IC50 (cytosolic LPC) of 43 µM.
